# Measured values: patent publication US8580919B2, “Polymer conjugates of GLP-1” (Nektar Therapeutics, priority 2005, dated 2013)
# Ends that are not written are not given here.
# Key:
# diabetic db/db mice = assay: In-vivo study of blood-glucose lowering effects, subcutaneous dose, diabetic db/db mice (Example 8); parameters: species or system mouse; conditions: for blood glucose-lowering effect: single SC dose, FIG. 13
# Protocol: Male diabetic mice (BKS.Cg-+Lepr db/+Lepr db/01aHsd) were purchased from Harlan Laboratories, Ltd. (Jerusalem, Israel). The 8-9 week old animals (30-40 gm) were placed in mouse cages (two animals per cage), and allowed at least 48 hours of acclimatization before the start of the study.
# The study was divided into two phases: a feasibility phase and an evaluation phase.
# In carrying out the feasibility phase, several groups of mice were used wherein four mice were used in each group. Data on the baseline glucose levels were gathered for each mouse for 2-3 days prior to drug dosing. This was performed to identify any outliers in the group of animals. On the day of treatment (Day 0) each animal was weighed. A time 0 day blood sample (5 to 10 μL) was collected from the tail vein. The glucose level (mg/dL) was measured using a glucose analyzer. Each animal was then dosed subcutaneously (SC) below the skin on the back. […] The animals were then allowed to return into their cages. Blood samples of 5 to 10 μL (<0.5% of 2 mL blood volume for a 35 g mouse) were removed through a needle prick/capillary tube at the following time points: −3, −2, −1, 0, 0.04, 0.16, 0.33, 1.0, 1.16 days. Each collected blood sample was tested for its glucose level. At the end of the study, the animals were humanely euthanized by carbon-dioxide asphyxiation.
# In carrying out the evaluation phase, eight mice were used in each group. Data on the baseline glucose levels were gathered for each mouse three days prior to drug dosing. On the day of treatment (Day 0) each animal was weighed. A time 0 day blood sample (5 to 10 μL) was collected from the tail vein. The glucose level (mg/dL) was measured using a glucose analyzer. Each animal was then dosed subcutaneously (SC) below the skin on the back. […] The animals were then allowed to return into their cages. Blood samples of 5 to 10 μL (<0.5% of 2 mL blood volume for a 35 g mouse) were removed through a needle prick/capillary tube at the following time points: −3, −2, −1, 0, 0.04, 0.16, 0.33, 0.5, 1, 2, 3, 6 days. Each collected blood sample was for its glucose level. […]
# [1] = Lability of the conjugate on attempted further purification (Example 23); type: physicochemical; conditions: when attempting to further purify the conjugate
# Description: The conjugate rapidly hydrolyzed to native GLP-1 and a GLP-1 derivative resulting from an intramolecular ring closure reaction due to reaction at the carbamate carbonyl by the imidazolyl nitrogen of the N-terminal histidine of GLP-1. The modified GLP-1 thereby released is shown below. Further purification was not pursued.
Substance,blood glucose-lowering effect (diabetic db/db mice),PD effect of 40 kilodalton PEG conjugate compared to 20 kilodalton PEG conjugate (diabetic db/db mice; SC 420 μg),stability of the conjugate [1]
"G2PEG2Fmoc20K-Lys-GLP-1: G2PEG2Fmoc20k-NHS covalently and releasably attached to a lysine position of GLP-1 (HAEGTFTSDVSSYLEGQAAKEFIAWLVKGRG; also: releasable G2PEG2Fmoc 20 kDa PEG on a lysine, position not given here; UniProt P01275 98-128, looked up)",confirmed,,
"G2PEG2Fmoc40K-Lys-GLP-1: G2PEG2Fmoc40k-NHS covalently and releasably attached to a lysine position of GLP-1 (HAEGTFTSDVSSYLEGQAAKEFIAWLVKGRG; also: releasable G2PEG2Fmoc 40 kDa PEG on a lysine, position not given here; UniProt P01275 98-128, looked up)",confirmed,small but extended PD effect,
N-terminal GLP-1 conjugate prepared by reaction with an mPEG-SBC reagent: counterpart N-terminal GLP-1 conjugate prepared by reaction with an mPEG-SBC reagent,,,extremely labile
